“And” between values parts separate entries of the source, which are not always exact repeats. Equal values may be shown once.
Legend:
[1] = target: T1, smooth muscle myocyte BK channels (KCNMB1-/-) (Mus musculus, UniProt Q08460); test: Inside-out patch-clamp of MCA smooth muscle myocytes, KCNMB1-/- mice; assay type: cell-based; details: for normalized NPo, time course Fig 5C: beta1KO, PROG 10uM
T1 construct: endogenous in cells; host or cells: freshly isolated middle cerebral artery smooth muscle cells of KCNMB1-/- mice, inside-out patches
T1 sequence (Q08460 whole entry): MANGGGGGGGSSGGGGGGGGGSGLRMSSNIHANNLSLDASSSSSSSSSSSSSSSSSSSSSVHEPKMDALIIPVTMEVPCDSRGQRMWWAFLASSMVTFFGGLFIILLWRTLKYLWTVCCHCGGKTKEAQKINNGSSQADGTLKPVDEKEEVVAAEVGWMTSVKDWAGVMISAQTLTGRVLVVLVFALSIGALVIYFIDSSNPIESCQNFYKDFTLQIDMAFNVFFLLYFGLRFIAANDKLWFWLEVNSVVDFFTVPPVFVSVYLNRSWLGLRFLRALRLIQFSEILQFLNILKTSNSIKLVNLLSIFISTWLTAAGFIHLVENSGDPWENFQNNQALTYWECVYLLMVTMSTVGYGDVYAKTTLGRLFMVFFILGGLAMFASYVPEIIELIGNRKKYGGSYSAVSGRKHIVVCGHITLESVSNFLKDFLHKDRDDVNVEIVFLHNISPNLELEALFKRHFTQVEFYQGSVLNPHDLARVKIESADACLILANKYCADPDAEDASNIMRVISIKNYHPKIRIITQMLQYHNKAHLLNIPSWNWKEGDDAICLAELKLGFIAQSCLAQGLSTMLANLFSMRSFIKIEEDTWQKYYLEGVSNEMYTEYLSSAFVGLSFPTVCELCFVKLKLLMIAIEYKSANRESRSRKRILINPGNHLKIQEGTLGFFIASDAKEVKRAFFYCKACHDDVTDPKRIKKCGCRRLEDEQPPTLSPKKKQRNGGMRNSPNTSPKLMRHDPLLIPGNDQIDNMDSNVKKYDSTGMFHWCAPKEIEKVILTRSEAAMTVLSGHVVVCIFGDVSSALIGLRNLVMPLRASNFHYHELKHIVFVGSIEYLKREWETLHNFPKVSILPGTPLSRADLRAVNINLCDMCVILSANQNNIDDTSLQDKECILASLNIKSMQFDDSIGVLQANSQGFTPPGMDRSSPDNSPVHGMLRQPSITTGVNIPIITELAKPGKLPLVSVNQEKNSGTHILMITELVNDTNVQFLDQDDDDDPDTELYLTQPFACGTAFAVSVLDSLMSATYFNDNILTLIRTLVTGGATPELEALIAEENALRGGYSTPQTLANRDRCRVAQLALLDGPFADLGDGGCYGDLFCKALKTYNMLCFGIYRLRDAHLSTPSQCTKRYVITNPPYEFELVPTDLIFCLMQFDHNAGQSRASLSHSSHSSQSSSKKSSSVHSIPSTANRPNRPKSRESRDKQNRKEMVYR
Method: Ionic currents were recorded from excised, inside-out (I/O) patches. […] In all experiments, free [Ca^2+] in solution was adjusted to the desired value by adding the appropriate amount of Ca^2+ from a 1 mM CaCl2 stock. An agar bridge with Cl^- as main anion was used as ground electrode. Solutions were applied onto the cytosolic side of I/O patches using an automated, pressurized system (Octaflow; […] Ionic currents at single channel resolution were recorded using an EPC8 amplifier (HEKA) at 1 kHz. Data were digitized at 5 kHz using a Digidata […] A/D converter and pCLAMP 8.0 (Molecular Devices); n = 5/group. […] Drug-induced NPo changes were determined by comparing baseline NPo (i.e., NPo with the patch/cell perfused with bath solution) to the NPo from the same patch/cell exposed to the agent under study (DMSO/PROG/oxime) dissolved in bath solution.

β1W87F = target: T2, β1W87F (Rattus norvegicus, UniProt P97678, W87F); test: Thermal unfolding (MST) of β1W87F; assay type: binding; details: 0.004 and 4.1 µM
T2 construct: FLAG (DYKDDDDK); made in house; host or cells: CHO cells, transient transfection, anti-flag immunoprecipitation
T2 sequence (P97678 whole entry W87F): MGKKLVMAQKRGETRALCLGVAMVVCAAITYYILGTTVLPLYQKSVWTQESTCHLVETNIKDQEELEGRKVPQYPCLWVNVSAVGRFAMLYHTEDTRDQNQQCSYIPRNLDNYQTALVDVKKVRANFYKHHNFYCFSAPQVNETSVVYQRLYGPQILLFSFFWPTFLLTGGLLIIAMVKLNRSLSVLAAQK
Source text: (§1) BK channel-forming slo1 cDNA (cbv1 isoform; AY330293) was cloned from rat cerebral artery SM cells, and inserted into pcDNA3.1 vector as described. BK β1 cDNA (KCNMB1 product; NP_011452; FJ154955) were isolated from rat cerebral artery SM cells and cloned as described. β4 cDNA (KCNMB4; NP_055320; AY028605) were generously provided by Dr. Ligia Toro. CHO cells were transiently transfected with cbv1 ± β1-, or β4-carrying pcDNA3.1 using X-tremeGENE HP (Sigma-Aldrich). Mutations to β1/4 cDNAs were conducted by Genscript, with sequences being confirmed to be >99% identical to KCNMB1 product; NP_011452 or β4 KCNMB4; NP_055320; respectively. β1/4 and mutant constructs were flag-tagged (DYKDDDDK-tag) by Genscript services for subsequent immunoprecipitation and use in microscale thermophoresis studies.
(§2) Wt β1, wt β4 and mutant constructs were purified by immunoprecipitation using Dynabeads Protein G Kit (10007D by Invitrogen) and following the manufacturer’s instructions. […] The unfolding profile of a protein is a plot of its fluorescence signal against temperature. […] During the heating process, fluorescence is recorded at 330 and 350 nm. The resulting fluorescence ratio change is then analyzed for onset and inflection points. The temperature of onset and inflection is determined using built-in analysis function in Nanotemper PR.therm-control software. […]

[2] = test system: β1-β4 chimera (loop of β4 with β1 TMs); test: Thermal unfolding (MST) of β1-β4 chimera; assay type: binding; details: 0.004 μM
Source text: as §1, §2

CC(=O)[C@H]1CC[C@H]2[C@@H]3CCC4=CC(=O)CC[C@]4(C)[C@H]3CC[C@]12C [PROG, Progesterone]
action on BK channel activity ([1]; 10 µM, I/O patches, 30 μM free Ca2+): consistently resistant to PROG
normalized NPo, scatter Fig 5D ([1]; KO, PROG, single cells (same values as 5C time 13)): 1.285 and 0.9695 and 0.9053 and 0.9515 and 1.0301
normalized NPo, time course Fig 5C ([1]; time 1 (normalisation reference), columns = cell number): 1
normalized NPo, time course Fig 5C ([1]; time 2): 0.9681 and 1.062 and 1.027 and 1.211 and 0.9954
normalized NPo, time course Fig 5C ([1]; time 3): 0.9157 and 1.074 and 1.107 and 1.076 and 1.008
normalized NPo, time course Fig 5C ([1]; time 4): 1.013 and 0.9333 and 1.023 and 1.02 and 0.9985
normalized NPo, time course Fig 5C ([1]; time 5): 0.8445 and 0.9395 and 0.9666 and 0.9766 and 1.044
normalized NPo, time course Fig 5C ([1]; time 6): 1.335 and 0.9407 and 1.013 and 1.133 and 0.9069
normalized NPo, time course Fig 5C ([1]; time 7): 1.401 and 0.9722 and 0.9298 and 1.141 and 1.008
normalized NPo, time course Fig 5C ([1]; time 8): 0.9307 and 0.9753 and 1 and 1.059 and 0.9374
normalized NPo, time course Fig 5C ([1]; time 9): 0.8843 and 0.9534 and 0.8763 and 1.168 and 1.029
normalized NPo, time course Fig 5C ([1]; time 10): 0.9107 and 1 and 0.9833 and 1.22 and 0.9731
normalized NPo, time course Fig 5C ([1]; time 11): 0.9343 and 1.019 and 1.187 and 1.237 and 0.9145
normalized NPo, time course Fig 5C ([1]; time 13): 0.9053 and 0.9515 and 1.0301 and 1.285 and 0.9695
normalized NPo, time course Fig 5C ([1]; time 14): 0.872 and 0.9873 and 0.9766 and 1.12 and 1.0626
normalized NPo, time course Fig 5C ([1]; time 15): 0.8834 and 0.9392 and 0.9933 and 1.107 and 1.032
normalized NPo, time course Fig 5C ([1]; time 16): 0.8292 and 1.033 and 0.8763 and 1.072 and 0.8061
normalized NPo, time course Fig 5C ([1]; time 17): 0.881 and 1.326 and 0.8485 and 1.237 and 0.7481
normalized NPo, time course Fig 5C ([1]; time 18): 0.8971 and 1.152 and 0.7759 and 1.189 and 1.06
normalized NPo, time course Fig 5C ([1]; time 19): 0.8576 and 1.179 and 0.7388 and 1.176 and 0.8214
normalized NPo, time course Fig 5C ([1]; time 20): 0.8348 and 0.9401 and 0.8127 and 1.189 and 0.8275
normalized NPo, time course Fig 5C ([1]; time 21): 0.9702 and 1.112 and 0.8729 and 1.098 and 1.041
normalized NPo, time course Fig 5C ([1]; time 22): 0.9222 and 1.09 and 0.9773 and 1.02
effect on thermal unfolding / binding (β1W87F): loss of PROG binding
effect on thermal unfolding / binding [2]: still bound and destabilized the protein structure

Reference: publication PMC10636063, “Progesterone activation of β1-containing BK channels involves two binding sites” (Nature Communications, 2023)
